Where a SMILES comes first, the peptide text is derived from it. [ ]: non-standard residue; d: D form. Ala(5-hexenyl) = C=CCCCCC[C@H](N)C(=O)O; Gly(octyl) = CCCCCCCC[C@H](N)C(=O)O
target: Phospholipid-transporting ATPase ABCA1 (Mus musculus, UniProt P41233); assay: Induction of ABCA1-mediated [3H]cholesterol efflux in mouse RAW 264.7 macrophages after 24 hrs
Sequence (P41233 whole entry): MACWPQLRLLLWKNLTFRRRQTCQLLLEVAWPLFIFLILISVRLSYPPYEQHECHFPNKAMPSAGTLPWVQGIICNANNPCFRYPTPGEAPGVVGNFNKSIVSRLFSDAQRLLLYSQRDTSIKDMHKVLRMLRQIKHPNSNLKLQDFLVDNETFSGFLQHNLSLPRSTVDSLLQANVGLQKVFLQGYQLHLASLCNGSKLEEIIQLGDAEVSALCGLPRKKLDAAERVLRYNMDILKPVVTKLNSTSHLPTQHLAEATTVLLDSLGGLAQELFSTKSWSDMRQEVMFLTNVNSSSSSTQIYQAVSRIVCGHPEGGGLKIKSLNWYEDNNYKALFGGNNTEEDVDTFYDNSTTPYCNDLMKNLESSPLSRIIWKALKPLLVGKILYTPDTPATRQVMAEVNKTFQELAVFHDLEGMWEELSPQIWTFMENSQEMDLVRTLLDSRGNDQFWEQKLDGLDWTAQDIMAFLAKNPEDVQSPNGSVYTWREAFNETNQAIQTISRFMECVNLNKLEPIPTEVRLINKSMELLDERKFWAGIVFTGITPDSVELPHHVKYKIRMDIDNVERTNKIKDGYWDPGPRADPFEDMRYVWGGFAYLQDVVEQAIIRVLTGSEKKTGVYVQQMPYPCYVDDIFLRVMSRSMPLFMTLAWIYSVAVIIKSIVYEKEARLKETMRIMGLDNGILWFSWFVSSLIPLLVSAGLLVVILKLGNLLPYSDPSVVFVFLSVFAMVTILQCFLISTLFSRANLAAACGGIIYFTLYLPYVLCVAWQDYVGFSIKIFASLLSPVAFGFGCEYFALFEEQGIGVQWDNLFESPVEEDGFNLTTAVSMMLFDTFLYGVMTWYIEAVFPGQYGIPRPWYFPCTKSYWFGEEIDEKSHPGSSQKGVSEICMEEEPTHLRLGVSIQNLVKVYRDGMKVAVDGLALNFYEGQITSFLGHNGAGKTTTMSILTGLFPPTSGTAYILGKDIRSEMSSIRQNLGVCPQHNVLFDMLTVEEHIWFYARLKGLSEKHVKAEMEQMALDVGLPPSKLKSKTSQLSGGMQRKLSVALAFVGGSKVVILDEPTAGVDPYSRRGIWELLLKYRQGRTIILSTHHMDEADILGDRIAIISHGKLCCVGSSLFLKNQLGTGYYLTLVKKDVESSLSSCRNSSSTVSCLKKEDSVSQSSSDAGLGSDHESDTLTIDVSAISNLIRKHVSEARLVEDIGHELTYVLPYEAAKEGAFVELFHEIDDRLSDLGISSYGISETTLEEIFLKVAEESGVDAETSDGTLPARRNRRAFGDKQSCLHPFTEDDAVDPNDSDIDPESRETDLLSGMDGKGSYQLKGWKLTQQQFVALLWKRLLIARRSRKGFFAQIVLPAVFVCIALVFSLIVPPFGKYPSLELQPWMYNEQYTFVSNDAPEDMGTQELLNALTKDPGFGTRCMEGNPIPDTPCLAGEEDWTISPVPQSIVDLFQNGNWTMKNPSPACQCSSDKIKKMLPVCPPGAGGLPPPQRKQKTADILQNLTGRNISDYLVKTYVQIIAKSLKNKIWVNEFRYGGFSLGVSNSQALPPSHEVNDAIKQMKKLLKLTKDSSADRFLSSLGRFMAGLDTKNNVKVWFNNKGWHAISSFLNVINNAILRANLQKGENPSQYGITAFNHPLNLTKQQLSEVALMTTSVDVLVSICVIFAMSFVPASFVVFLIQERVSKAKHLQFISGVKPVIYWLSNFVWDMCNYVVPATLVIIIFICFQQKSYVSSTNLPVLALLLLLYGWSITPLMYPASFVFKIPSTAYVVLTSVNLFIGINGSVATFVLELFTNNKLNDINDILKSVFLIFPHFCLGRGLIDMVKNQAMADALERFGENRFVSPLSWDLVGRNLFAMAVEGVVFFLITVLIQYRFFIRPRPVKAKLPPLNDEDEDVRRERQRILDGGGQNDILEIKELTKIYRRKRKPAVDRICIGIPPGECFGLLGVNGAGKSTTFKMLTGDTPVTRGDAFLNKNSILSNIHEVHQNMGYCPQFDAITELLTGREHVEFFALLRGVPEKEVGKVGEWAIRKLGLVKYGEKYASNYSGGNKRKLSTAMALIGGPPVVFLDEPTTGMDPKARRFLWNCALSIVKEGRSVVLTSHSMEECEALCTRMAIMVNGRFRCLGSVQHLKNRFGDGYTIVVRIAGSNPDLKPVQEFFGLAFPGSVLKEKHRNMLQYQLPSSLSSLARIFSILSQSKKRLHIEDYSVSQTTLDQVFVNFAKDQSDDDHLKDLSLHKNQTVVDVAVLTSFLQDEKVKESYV

Structure (SMILES)	EC50 [µM]
C=CCCCC[C@@H](NC(=O)[C@H](CCC(N)=O)NC(=O)[C@H](CCCCN)NC(=O)[C@H](CC(C)C)NC(=O)[C@H](C)NC(=O)[C@H](CCC(=O)O)NC(=O)[C@H](CC(C)C)NC(=O)[C@H](CCC(=O)O)NC(=O)[C@H](CCC(=O)O)NC(=O)[C@H](CC(N)=O)NC(=O)[C@H](CC(C)C)NC(=O)[C@H](CCCCN)NC(=O)[C@H](CCC(=O)O)NC(=O)[C@H](CCCNC(=N)N)NC(=O)[C@H](Cc1ccccc1)NC(=O)[C@H](CCC(=O)O)NC(=O)[C@H](CC(=O)O)NC(=O)[C@H](CC(C)C)NC(=O)[C@@H](NC(=O)[C@@H]1CCCN1C(C)=O)C(C)C)C(=O)N[C@@H](CC(C)C)C(=O)N[C@@H](CCCCN)C(N)=O	> 100
CCCCCCCC[C@H](NC(=O)[C@H](CCC(=O)O)NC(=O)[C@H](CC(N)=O)NC(=O)[C@H](CC(C)C)NC(=O)[C@H](CCCCN)NC(=O)[C@H](CCC(=O)O)NC(=O)[C@H](CCCNC(=N)N)NC(=O)[C@H](CCCCCCCC)NC(=O)[C@H](CCC(=O)O)NC(=O)[C@H](CC(=O)O)NC(=O)[C@H](CC(C)C)NC(=O)[C@@H](NC(=O)[C@@H]1CCCN1C(C)=O)C(C)C)C(=O)N[C@@H](CC(C)C)C(=O)N[C@@H](CCC(=O)O)C(=O)N[C@@H](C)C(=O)N[C@@H](CC(C)C)C(=O)N[C@@H](CCCCN)C(=O)N[C@@H](CCC(N)=O)C(=O)N[C@@H](CCCCN)C(=O)N[C@@H](CC(C)C)C(=O)N[C@@H](CCCCN)C(N)=O (Ac-PVLDE[Gly(octyl)]REKLNE[Gly(octyl)]LEALKQKLK-NH2)	0.6
C=CCCCCC[C@H](NC(=O)[C@H](CCC(=O)O)NC(=O)[C@H](CC(N)=O)NC(=O)[C@H](CC(C)C)NC(=O)[C@H](CCCCN)NC(=O)[C@H](CCC(=O)O)NC(=O)[C@H](CCCN=C(N)N)NC(=O)[C@H](Cc1ccccc1)NC(=O)[C@H](CCC(=O)O)NC(=O)[C@H](CC(=O)O)NC(=O)[C@H](CC(C)C)NC(=O)[C@H](CCCCCC=C)NC(=O)[C@@H]1CCCN1C(C)=O)C(=O)N[C@@H](CC(C)C)C(=O)N[C@@H](CCC(=O)O)C(=O)N[C@@H](C)C(=O)N[C@@H](CC(C)C)C(=O)N[C@@H](CCCCN)C(=O)N[C@@H](CCC(N)=O)C(=O)N[C@@H](CCCCN)C(=O)N[C@@H](CC(C)C)C(=O)N[C@@H](CCCCN)C(N)=O (Ac-P[Ala(5-hexenyl)]LDEFREKLNE[Ala(5-hexenyl)]LEALKQKLK-NH2)	0.4
C=CCCCC[C@H](NC(=O)[C@@H](NC(=O)[C@@H]1CCCN1C(C)=O)C(C)C)C(=O)N[C@@H](CC(=O)O)C(=O)N[C@@H](CCC(=O)O)C(=O)N[C@@H](Cc1ccccc1)C(=O)N[C@@H](CCCNC(=N)N)C(=O)N[C@@H](CCC(=O)O)C(=O)N[C@@H](CCCCN)C(=O)N[C@@H](CC(C)C)C(=O)N[C@@H](CC(N)=O)C(=O)N[C@@H](CCC(=O)O)C(=O)N[C@@H](CCC(=O)O)C(=O)N[C@@H](CC(C)C)C(=O)N[C@@H](CCC(=O)O)C(=O)N[C@@H](C)C(=O)N[C@@H](CC(C)C)C(=O)N[C@@H](CCCCN)C(=O)N[C@@H](CCC(N)=O)C(=O)N[C@@H](CCCCN)C(=O)N[C@@H](CC(C)C)C(=O)N[C@@H](CCCCN)C(N)=O	> 100
C=CCCCCC[C@@H](NC(=O)[C@H](CCC(N)=O)NC(=O)[C@H](CCCCN)NC(=O)[C@H](CC(C)C)NC(=O)[C@H](C)NC(=O)[C@H](CCC(=O)O)NC(=O)[C@H](CC(C)C)NC(=O)[C@H](CCC(=O)O)NC(=O)[C@H](CCC(=O)O)NC(=O)[C@H](CC(N)=O)NC(=O)[C@H](CC(C)C)NC(=O)[C@H](CCCCN)NC(=O)[C@H](CCC(=O)O)NC(=O)[C@H](CCCN=C(N)N)NC(=O)[C@H](Cc1ccccc1)NC(=O)[C@H](CCC(=O)O)NC(=O)[C@H](CC(=O)O)NC(=O)[C@H](CC(C)C)NC(=O)[C@@H](NC(=O)[C@@H]1CCCN1C(C)=O)C(C)C)C(=O)N[C@@H](CC(C)C)C(=O)N[C@@H](CCCCN)C(N)=O	> 100
C=CCCCC[C@@H](NC(=O)[C@H](CCCCN)NC(=O)[C@H](CCC(N)=O)NC(=O)[C@H](CCCCN)NC(=O)[C@H](CC(C)C)NC(=O)[C@H](C)NC(=O)[C@H](CCC(=O)O)NC(=O)[C@H](CC(C)C)NC(=O)[C@H](CCC(=O)O)NC(=O)[C@H](CCC(=O)O)NC(=O)[C@H](CC(N)=O)NC(=O)[C@H](CC(C)C)NC(=O)[C@H](CCCCN)NC(=O)[C@H](CCC(=O)O)NC(=O)[C@H](CCCNC(=N)N)NC(=O)[C@H](Cc1ccccc1)NC(=O)[C@H](CCC(=O)O)NC(=O)[C@H](CC(=O)O)NC(=O)[C@H](CC(C)C)NC(=O)[C@@H](NC(=O)[C@@H]1CCCN1C(C)=O)C(C)C)C(=O)N[C@@H](CCCCN)C(N)=O	> 100
C=CCCCCC[C@H](NC(=O)[C@H](CCC(N)=O)NC(=O)[C@H](CCCCN)NC(=O)[C@H](CC(C)C)NC(=O)[C@H](C)NC(=O)[C@H](CCC(=O)O)NC(=O)[C@H](CC(C)C)NC(=O)[C@H](CCCCCC=C)NC(=O)[C@H](CCC(=O)O)NC(=O)[C@H](CC(N)=O)NC(=O)[C@H](CC(C)C)NC(=O)[C@H](CCCCN)NC(=O)[C@H](CCC(=O)O)NC(=O)[C@H](CCCNC(=N)N)NC(=O)[C@H](CCCCCC=C)NC(=O)[C@H](CCC(=O)O)NC(=O)[C@H](CC(=O)O)NC(=O)[C@H](CC(C)C)NC(=O)[C@@H](NC(=O)[C@@H]1CCCN1C(C)=O)C(C)C)C(=O)N[C@@H](CC(C)C)C(=O)N[C@@H](CCCCN)C(N)=O (Ac-PVLDE[Ala(5-hexenyl)]REKLNE[Ala(5-hexenyl)]LEALKQ[Ala(5-hexenyl)]LK-NH2)	1.8
C=CCCCCC[C@H](NC(=O)[C@H](CCC(N)=O)NC(=O)[C@H](CCCCN)NC(=O)[C@H](CC(C)C)NC(=O)[C@H](C)NC(=O)[C@H](CCC(=O)O)NC(=O)[C@H](CC(C)C)NC(=O)[C@H](CCCCCC=C)NC(=O)[C@H](CCC(=O)O)NC(=O)[C@H](CC(N)=O)NC(=O)[C@H](CC(C)C)NC(=O)[C@H](CCCCN)NC(=O)[C@H](CCC(=O)O)NC(=O)[C@H](CCCN=C(N)N)NC(=O)[C@H](Cc1ccccc1)NC(=O)[C@H](CCC(=O)O)NC(=O)[C@H](CC(=O)O)NC(=O)[C@H](CC(C)C)NC(=O)[C@H](CCCCCC=C)NC(=O)[C@@H]1CCCN1C(C)=O)C(=O)N[C@@H](CC(C)C)C(=O)N[C@@H](CCCCN)C(N)=O (Ac-P[Ala(5-hexenyl)]LDEFREKLNE[Ala(5-hexenyl)]LEALKQ[Ala(5-hexenyl)]LK-NH2)	5
C=CCCCCC[C@H](NC(=O)[C@H](CCC(=O)O)NC(=O)[C@H](CC(N)=O)NC(=O)[C@H](CC(C)C)NC(=O)[C@H](CCCCN)NC(=O)[C@H](CCC(=O)O)NC(=O)[C@H](CCCNC(=N)N)NC(=O)[C@H](Cc1ccccc1)NC(=O)[C@H](CCC(=O)O)NC(=O)[C@H](CC(=O)O)NC(=O)[C@H](CC(C)C)NC(=O)[C@@H](NC(=O)[C@@H]1CCCN1C(C)=O)C(C)C)C(=O)N[C@@H](CC(C)C)C(=O)N[C@@H](CCC(=O)O)C(=O)N[C@@H](C)C(=O)N[C@@H](CC(C)C)C(=O)N[C@@H](CCCCN)C(=O)N[C@@H](CCC(N)=O)C(=O)N[C@@H](CCCCN)C(=O)N[C@@H](CC(C)C)C(=O)N[C@@H](CCCCN)C(N)=O (Ac-PVLDEFREKLNE[Ala(5-hexenyl)]LEALKQKLK-NH2)	2.4
C=CCCCC[C@@H](NC(=O)[C@H](CCC(=O)O)NC(=O)[C@H](CCCNC(=N)N)NC(=O)[C@H](Cc1ccccc1)NC(=O)[C@H](CCC(=O)O)NC(=O)[C@H](CC(=O)O)NC(=O)[C@H](CC(C)C)NC(=O)[C@@H](NC(=O)[C@@H]1CCCN1C(C)=O)C(C)C)C(=O)N[C@@H](CC(C)C)C(=O)N[C@@H](CC(N)=O)C(=O)N[C@@H](CCC(=O)O)C(=O)N[C@@H](CCC(=O)O)C(=O)N[C@@H](CC(C)C)C(=O)N[C@@H](CCC(=O)O)C(=O)N[C@@H](C)C(=O)N[C@@H](CC(C)C)C(=O)N[C@@H](CCCCN)C(=O)N[C@@H](CCC(N)=O)C(=O)N[C@@H](CCCCN)C(=O)N[C@@H](CC(C)C)C(=O)N[C@@H](CCCCN)C(N)=O	> 100
C=CCCCCC[C@H](NC(=O)[C@H](CCC(=O)O)NC(=O)[C@H](CCCN=C(N)N)NC(=O)[C@H](Cc1ccccc1)NC(=O)[C@H](CCC(=O)O)NC(=O)[C@H](CC(=O)O)NC(=O)[C@H](CC(C)C)NC(=O)[C@@H](NC(=O)[C@@H]1CCCN1C(C)=O)C(C)C)C(=O)N[C@@H](CC(C)C)C(=O)N[C@@H](CC(N)=O)C(=O)N[C@@H](CCC(=O)O)C(=O)N[C@@H](CCC(=O)O)C(=O)N[C@@H](CC(C)C)C(=O)N[C@@H](CCC(=O)O)C(=O)N[C@@H](C)C(=O)N[C@@H](CC(C)C)C(=O)N[C@@H](CCCCN)C(=O)N[C@@H](CCC(N)=O)C(=O)N[C@@H](CCCCN)C(=O)N[C@@H](CC(C)C)C(=O)N[C@@H](CCCCN)C(N)=O	> 100
C=CCCCC[C@H](NC(=O)[C@H](CCC(=O)O)NC(=O)[C@H](CC(=O)O)NC(=O)[C@H](CC(C)C)NC(=O)[C@@H](NC(=O)[C@@H]1CCCN1C(C)=O)C(C)C)C(=O)N[C@@H](CCCNC(=N)N)C(=O)N[C@@H](CCC(=O)O)C(=O)N[C@@H](CCCCN)C(=O)N[C@@H](CC(C)C)C(=O)N[C@@H](CC(N)=O)C(=O)N[C@@H](CCC(=O)O)C(=O)N[C@@H](CCC(=O)O)C(=O)N[C@@H](CC(C)C)C(=O)N[C@@H](CCC(=O)O)C(=O)N[C@@H](C)C(=O)N[C@@H](CC(C)C)C(=O)N[C@@H](CCCCN)C(=O)N[C@@H](CCC(N)=O)C(=O)N[C@@H](CCCCN)C(=O)N[C@@H](CC(C)C)C(=O)N[C@@H](CCCCN)C(N)=O	> 100
C=CCCCC[C@@H](NC(=O)[C@H](C)NC(=O)[C@H](CCC(=O)O)NC(=O)[C@H](CC(C)C)NC(=O)[C@H](CCC(=O)O)NC(=O)[C@H](CCC(=O)O)NC(=O)[C@H](CC(N)=O)NC(=O)[C@H](CC(C)C)NC(=O)[C@H](CCCCN)NC(=O)[C@H](CCC(=O)O)NC(=O)[C@H](CCCNC(=N)N)NC(=O)[C@H](Cc1ccccc1)NC(=O)[C@H](CCC(=O)O)NC(=O)[C@H](CC(=O)O)NC(=O)[C@H](CC(C)C)NC(=O)[C@@H](NC(=O)[C@@H]1CCCN1C(C)=O)C(C)C)C(=O)N[C@@H](CCCCN)C(=O)N[C@@H](CCC(N)=O)C(=O)N[C@@H](CCCCN)C(=O)N[C@@H](CC(C)C)C(=O)N[C@@H](CCCCN)C(N)=O	> 100
C=CCCCCC[C@@H](NC(=O)[C@H](CCC(=O)O)NC(=O)[C@H](CCCNC(=N)N)NC(=O)[C@H](Cc1ccccc1)NC(=O)[C@H](CCC(=O)O)NC(=O)[C@H](CC(=O)O)NC(=O)[C@H](CC(C)C)NC(=O)[C@@H](NC(=O)[C@@H]1CCCN1C(C)=O)C(C)C)C(=O)N[C@@H](CC(C)C)C(=O)N[C@@H](CC(N)=O)C(=O)N[C@@H](CCC(=O)O)C(=O)N[C@@H](CCC(=O)O)C(=O)N[C@@H](CC(C)C)C(=O)N[C@@H](CCC(=O)O)C(=O)N[C@@H](C)C(=O)N[C@@H](CC(C)C)C(=O)N[C@@H](CCCCN)C(=O)N[C@@H](CCC(N)=O)C(=O)N[C@@H](CCCCN)C(=O)N[C@@H](CC(C)C)C(=O)N[C@@H](CCCCN)C(N)=O	> 100
